Experimental data as given in ChEMBL document CHEMBL1138551, “Antimicrobial studies of some novel quinazolinones fused with [1,2,4]-triazole, [1,2,4]-triazine and [1,2,4,5]-tetrazine rings” (2009).
In brackets after ≈: the same amount, converted by molar mass.

Tests used:
Format in all cases: functional
[1] = test system: Aspergillus flavus; assay: Antifungal activity against Aspergillus flavus after 26 hrs by serial plate dilution method
[2] = test system: Aspergillus niger; assay: Antifungal activity against Aspergillus niger after 26 hrs by serial plate dilution method
[3] = test system: Escherichia coli; assay: Antibacterial activity against Escherichia coli after 24 hrs by disk diffusion method
[4] = test system: Pseudomonas aeruginosa; assay: Antibacterial activity against Pseudomonas aeruginosa after 24 hrs by disk diffusion method
[5] = test system: Streptococcus pneumoniae; assay: Antibacterial activity against Streptococcus pneumoniae after 24 hrs by disk diffusion method
[6] = test system: Bacillus subtilis; assay: Antibacterial activity against Bacillus subtilis after 24 hrs by disk diffusion method
[7] = test system: Candida albicans; assay: Antifungal activity against Candida albicans after 26 hrs by serial plate dilution method
[8] = test system: Aspergillus fumigatus; assay: Antifungal activity against Aspergillus fumigatus after 26 hrs by serial plate dilution method

Structure (SMILES)	MIC [1] [µg/mL]	MIC [2] [µg/mL]	MIC [3] [µg/mL]	MIC [4] [µg/mL]	MIC [5] [µg/mL]	MIC [6] [µg/mL]	MIC [7] [µg/mL]	MIC [8] [µg/mL]
Cc1ccccc1-c1nnc2n(-c3ccc(Cl)cc3)c(=O)c3ccccc3n12	3.12 (≈ 8.07 µM)	12.5 (≈ 32.3 µM)	12.5 (≈ 32.3 µM)	25 (≈ 64.6 µM)	25 (≈ 64.6 µM)	12.5 (≈ 32.3 µM)	6.25 (≈ 16.2 µM)	12.5 (≈ 32.3 µM)
Cc1ccc(-n2c(=O)c3ccccc3n3c(-c4ccccc4Cl)nnc23)cc1	50 (≈ 129 µM)	6.25 (≈ 16.2 µM)	12.5 (≈ 32.3 µM)	6.25 (≈ 16.2 µM)	12.5 (≈ 32.3 µM)	25 (≈ 64.6 µM)	12.5 (≈ 32.3 µM)	25 (≈ 64.6 µM)
Cc1ccc(-n2c(=O)c3ccccc3n3c(-c4ccccc4C)nnc23)cc1	50 (≈ 136 µM)	12.5 (≈ 34.1 µM)	25 (≈ 68.2 µM)	> 50	25 (≈ 68.2 µM)	> 50	25 (≈ 68.2 µM)	12.5 (≈ 34.1 µM)
O=c1c2ccccc2n2c(-c3ccccc3Cl)nnc2n1-c1ccccc1	12.5 (≈ 33.5 µM)	6.25 (≈ 16.8 µM)	12.5 (≈ 33.5 µM)	6.25 (≈ 16.8 µM)	25 (≈ 67.1 µM)	50 (≈ 134 µM)	25 (≈ 67.1 µM)	50 (≈ 134 µM)
COc1ccc(-n2c(=O)c3ccccc3n3c(-c4ccccc4Cl)nnc23)cc1	3.12 (≈ 7.74 µM)	1.56 (≈ 3.87 µM)	3.12 (≈ 7.74 µM)	1.56 (≈ 3.87 µM)	6.25 (≈ 15.5 µM)	3.12 (≈ 7.74 µM)	6.25 (≈ 15.5 µM)	3.12 (≈ 7.74 µM)
Cc1ccc(N2C(=S)NN=C3N(c4ccccc4)C(=O)c4ccccc4N32)cc1	12.5 (≈ 31.3 µM)	25 (≈ 62.6 µM)	50 (≈ 125 µM)	50 (≈ 125 µM)	25 (≈ 62.6 µM)	50 (≈ 125 µM)	> 50	25 (≈ 62.6 µM)
O=c1c2ccccc2n2c3nc4ccccc4c-3nnc2n1-c1ccccc1	25 (≈ 68.8 µM)	> 50	50 (≈ 138 µM)	25 (≈ 68.8 µM)	> 50	50 (≈ 138 µM)	> 50	25 (≈ 68.8 µM)
O=c1c2ccccc2n2c(-c3ccccc3Cl)nnc2n1-c1ccc(Cl)cc1	6.25 (≈ 15.3 µM)	1.56 (≈ 3.83 µM)	1.56 (≈ 3.83 µM)	3.12 (≈ 7.66 µM)	3.12 (≈ 7.66 µM)	1.56 (≈ 3.83 µM)	1.56 (≈ 3.83 µM)	3.12 (≈ 7.66 µM)
O=c1c2ccccc2n2c3nc4ccccc4c-3nnc2n1-c1ccc(Cl)cc1	3.12 (≈ 7.84 µM)	1.56 (≈ 3.92 µM)	3.12 (≈ 7.84 µM)	3.12 (≈ 7.84 µM)	1.56 (≈ 3.92 µM)	6.25 (≈ 15.7 µM)	3.12 (≈ 7.84 µM)	6.25 (≈ 15.7 µM)
Cc1ccc(N2C(=O)c3ccccc3N3C2=NNC(=S)N3c2ccc(C)cc2)cc1	12.5 (≈ 30.2 µM)	25 (≈ 60.5 µM)	25 (≈ 60.5 µM)	50 (≈ 121 µM)	50 (≈ 121 µM)	25 (≈ 60.5 µM)	25 (≈ 60.5 µM)	50 (≈ 121 µM)
O=C(O)c1cn(C2CC2)c2cc(N3CCNCC3)c(F)cc2c1=O [CIPROFLOXACIN]	–	–	–	3.12 (≈ 9.42 µM)	6.25 (≈ 18.9 µM)	1.56 (≈ 4.71 µM)	–	–
OC(Cn1cncn1)(Cn1cncn1)c1ccc(F)cc1F [FLUCONAZOLE]	3.12 (≈ 10.2 µM)	1.56 (≈ 5.09 µM)	–	–	–	–	1.56 (≈ 5.09 µM)	6.25 (≈ 20.4 µM)
